According to paper PMC10910531:

Experiments:
[1] = CRE method E: cyclic oxalate-type (1,2-dicarbonyl) formation with oxalyl chloride + Et3N; conditions: the molecule shown is the open-chain precursor, CH2Cl2, 50.0 mM, 22.0 °C
[2] = CRE method B: lactone/thiolactone/lactam formation, EDC.HCl + HOBt + DIPEA; conditions: DMF, 100.0 mM, 22.0 °C
[3] = CRE method F: cyclic sulfite/sulfamidite formation with SOCl2 + DMAP; conditions: the molecule shown is the open-chain precursor, CH2Cl2, 50.0 mM, 22.0 °C, 18.0 h
[4] = CRE method A: lactone/lactam formation, T3P + DIPEA, internal nucleophile (pyridine/amine) cascade; conditions: the molecule shown is the open-chain precursor, CHCl3, 50.0 mM, 22.0 °C
[5] = CRE method C: cyclic carbamate/urea formation with triphosgene + Et3N; conditions: the molecule shown is the open-chain precursor, CH2Cl2, 100.0 mM, 22.0 °C

O=C(Cl)C(=O)N(CCc1cccc(CCNc2ccccc2)n1)c1ccccc1 [S140 -> 96]
ring closure, isolated yield ([1]; 11-membered ring, 0.5 h): 51%

CC1CN(C)c2ccccc2-c2ccccc2C(=O)O1 (stereo not shown) [S69 -> 62]
ring closure, isolated yield ([2]; from CC(O)CN(C)c1ccccc1-c1ccccc1C(=O)O, 9-membered ring, 24.0 h): 81%

CN1CCCC(=O)Oc2ccccc21 [S114 -> 81 (2 steps)]
ring closure, isolated yield ([2]; from CN(CCCC(=O)O)c1ccccc1O, 8-membered ring, 18.0 h): 78%

CC(O)Cc1cccc(-c2ccccc2COS(=O)Cl)n1 (stereo not shown) [S129 -> 88]
ring closure, isolated yield ([3]; 11-membered ring): 58%

CN1CCOC(=O)c2ccccc2-c2ccccc21 [S63 -> 60]
ring closure, isolated yield ([2]; from CN(CCO)c1ccccc1-c1ccccc1C(=O)O, 9-membered ring, 24.0 h): 72%

O=C1OCCCCCc2ccccc21 [14 -> 15 (control)]
ring closure, isolated yield ([2]; from O=C(O)c1ccccc1CCCCCO, 9-membered ring, 18.0 h): 43%

CC(Cc1cccc(-c2ccccc2CC(=O)O)n1)Nc1ccccc1 (stereo not shown) [S77 -> 65 (quantitative)]
ring closure, isolated yield ([4]; 10-membered ring, 0.5 h): 100%

CC(O)Cc1cccc(-c2ccccc2CC(=O)O)n1 (stereo not shown) [8 -> 9]
ring closure, isolated yield ([4]; 10-membered ring, 0.5 h): 90%

CC(Cc1cccc(-c2ccccc2CO)n1)N(C(=O)C(=O)Cl)c1ccccc1 (stereo not shown) [S127 -> 87]
ring closure, isolated yield ([1]; 12-membered ring, 3.0 h): 71%

CN(c1ccccc1-c1cccc(CCO)n1)S(=O)Cl (stereo not shown) [S124 -> 86]
ring closure, isolated yield ([3]; 10-membered ring): 46%

O=C1OCCSCc2ccccc21 [47]
ring closure, isolated yield ([2]; from O=C(O)c1ccccc1CSCCO, 8-membered ring): 88%

CN(C(=O)Cl)c1ccccc1-c1cccc(CCO)n1 [S124 -> 84]
ring closure, isolated yield ([5]; 10-membered ring, 18.0 h): 59%

CN1CCCOC(=O)c2ccccc2-c2ccccc21 [S67 -> 61]
ring closure, isolated yield ([2]; from CN(CCCO)c1ccccc1-c1ccccc1C(=O)O, 10-membered ring, 24.0 h): 72%

CN(C(=O)Cl)c1ccccc1-c1cccc(CC(O)c2ccccc2)n1 (stereo not shown) [S126 -> 85 (NMR yield)]
ring closure, isolated yield ([5]; 10-membered ring, 18.0 h): 34%

O=C(Cl)N(CCN(CCCO)c1ccccc1)c1ccccc1 [16 -> 17]
ring closure, isolated yield ([5]; 9-membered ring, 0.5 h): 62%

CC1CCN(C)c2ccccc2-c2ccccc2C(=O)O1 (stereo not shown) [S71 -> 63]
ring closure, isolated yield ([2]; from CC(O)CCN(C)c1ccccc1-c1ccccc1C(=O)O, 10-membered ring, 24.0 h): 78%

CC(O)Cc1cccc(-c2ccccc2CC(=O)O)c1 (stereo not shown) [10 -> 11 (control)]
ring closure, isolated yield ([4]; 10-membered ring): 0%

O=C1c2ccccc2CN(Cc2ccccc2)CC2CCCCN12 (stereo not shown) [S108 -> 79]
ring closure, isolated yield ([2]; from O=C(O)c1ccccc1CN(Cc1ccccc1)CC1CCCCN1, 8-membered ring, 18.0 h): 82%

O=C1OCCCSCc2c(Br)cccc21 [49c]
ring closure, isolated yield ([2]; from O=C(O)c1cccc(Br)c1CSCCCO, 9-membered ring): 67%

O=C1OCCCSCc2ccccc21 [12 -> 13]
ring closure, isolated yield ([2]; from O=C(O)c1ccccc1CSCCCO, 9-membered ring, 18.0 h): 86%

O=C1OCCCSCc2ccc(F)cc21 [S30 -> 48]
ring closure, isolated yield ([2]; from O=C(O)c1cc(F)ccc1CSCCCO, 9-membered ring, 18.0 h): 80%

CCNCCCN(CC)Cc1ccccc1C(=O)O [S84-derived acid -> 68 (2 steps)]
ring closure, isolated yield ([4]; 9-membered ring): 54%

CN(C(=O)C(=O)Cl)c1ccccc1CCCCO [26 -> 27 (control)]
ring closure, isolated yield ([1]; 10-membered ring, 18.0 h): 9%

CN(CCCN)CCCC(=O)O [S104-derived amino acid -> 78 (2 steps)]
ring closure, isolated yield ([4]; 9-membered ring): 65%

C=CCNC(C)Cc1cccc(-c2ccccc2CC(=O)O)n1 (stereo not shown) [S74 -> 64 (2 steps)]
ring closure, isolated yield ([4]; 10-membered ring, 0.5 h): 75%

CNCCCN(C)CCCN(C)C(=O)C(=O)Cl [34 -> 98]
ring closure, isolated yield ([1]; 11-membered ring, 18.0 h): 71%

O=C1OCCCSCc2c1cccc2[N+](=O)[O-] [50]
ring closure, isolated yield ([2]; from O=C(O)c1cccc([N+](=O)[O-])c1CSCCCO, 9-membered ring, 24.0 h): 47%

CN(CCCO)c1ccccc1N(C)C(=O)C(=O)Cl [24 -> 25]
ring closure, isolated yield ([1]; 10-membered ring, 18.0 h): 73%

O=C1SCCCSCc2ccccc21 [S86 -> 69]
ring closure, isolated yield ([2]; from O=C(O)c1ccccc1CSCCCS, 9-membered ring, 16.0 h): 65%

CC1CCSCc2ccccc2C(=O)O1 (stereo not shown) [S43 -> 51]
ring closure, isolated yield ([2]; from CC(O)CCSCc1ccccc1C(=O)O, 9-membered ring, 16.0 h): 71%

O=C(Cl)N(CCc1cccc(CCNc2ccccc2)n1)c1ccccc1 [S140 -> 97]
ring closure, isolated yield ([5]; 10-membered ring, 18.0 h): 49%

CC(O)Cc1cncc(-c2ccccc2CC(=O)O)n1 (stereo not shown) [S52 -> 55]
ring closure, isolated yield ([4]; 10-membered ring, 0.5 h): 90%

O=S(Cl)OCCCN(CCCO)c1ccccc1 (stereo not shown) [S130 -> 89]
ring closure, isolated yield ([3]; 10-membered ring): 40%

O=S(Cl)OCCCN(CCCO)Cc1ccccc1 (stereo not shown) [28 -> 29]
ring closure, isolated yield ([3]; 10-membered ring): 86%

O=C(Cl)N(CCCN(CCCO)c1ccccc1)c1ccccc1 [S138 -> 94]
ring closure, isolated yield ([5]; 10-membered ring, 18.0 h): 78%

O=C(Cl)N(CCCCCCO)c1ccccc1 [18 -> 19 (control)]
ring closure, isolated yield ([5]; 9-membered ring): 0%

O=S(Cl)OCCCCCCCO (stereo not shown) [30 -> 31 (control)]
ring closure, isolated yield ([3]; 10-membered ring): 8%
